# Measurements as given in patent US20070232563A1, “Method for Enhancing Biological Activity and/or Expanding Suitable Region for Biological Activity of Living Body Contacting with Aqueous Environment” (Kabushiki Kaisha Hayashibara Seibutsu Kagaku Kenky, priority 2004, published 2007).
# Tests used:
# [1] = tested on: short-necked clam (Ruditapes philippinarum); experiment: Biological activity of short-necked clam (aqueduct extension score) in aqueous mineral solutions; format: in vivo; conditions: for Judgment score of biological activity: Experiment 2; for Judgment score for biological activity: total of 18 clams, 16 h
# [2] = tested on: unpolished rice; experiment: Germination of unpolished rice in aqueous mineral solution; format: in vivo
# Procedure: Suitable mineral range of aqueous mineral solutions containing saccharides was examined by using unpolished rice as an agricultural product. In detail, a commercialized purified salt as a mineral was dissolved in tap water to give a final concentration of 0.5, 1.0, 1.5, or 2.0 as described in the following Table 6. α,α-Trehalose or α-maltosyl α,α-trehalose was dissolved in the resulting solutions to give a final concentration of 1 w/v %, on a dry solid basis. Absorbent cotton was allowed to absorb the resulting solution in an appropriate amount and placed in a plastic laboratory dish with a cover. Commercialized unpolished rice grains were placed on the cotton in the dish by 20 grains per group and kept at ambient temperature (25° C.) under a light-shaded condition by covering with a black cloth. As controls, an aqueous mineral solution without saccharides, and water without saccharides and minerals were prepared. […] Effective concentration of α,α-trehalose or α-maltosyl α,α-trehalose on expanding suitable region for biological activity of unpolished rice grains were determined by examining the number of germinated unpolished rice grains and germination time as an index in accordance with the method in Experiment 6 in the aqueous mineral solution with mineral concentration of 1.5 w/v %, where α,α-trehalose or α-maltosyl α,α-trehalose was effective in Experiment 6, containing α,α-trehalose or α-maltosyl α,α-trehalose in a concentration of 0.01, 0.1, 1, 2, 3, 4 or 6 w/v %, on a dry solid basis. As a control, water without saccharides or minerals was used.
# [3] = mineral 1.5 w/v %, saccharide 1 w/v %
# [4] = mineral 4.5 w/v %, saccharide 1 w/v %
smiles,measurement,setting,value
"OC[C@H]1O[C@H](O[C@H]2O[C@H](CO)[C@@H](O[C@H]3O[C@H](CO)[C@@H](O[C@H]4O[C@H](CO)[C@@H](O)[C@H](O)[C@H]4O)[C@H](O)[C@H]3O)[C@H](O)[C@H]2O)[C@H](O)[C@@H](O)[C@@H]1O [α-Maltosyl α,α-trehalose, α-maltosyl α,α-trehalose]",Judgment score of biological activity,"[1]; mineral 1.5 w/v %, saccharide 0.01 w/v %",18
same,Judgment score of biological activity,"[1]; mineral 1.5 w/v %, saccharide 0.1 w/v %",35
same,Judgment score of biological activity,[1]; [3],41
same,Judgment score of biological activity,"[1]; mineral 1.5 w/v %, saccharide 2 w/v %",43
same,Judgment score of biological activity,"[1]; mineral 1.5 w/v %, saccharide 3 w/v %",34
same,Judgment score of biological activity,"[1]; mineral 1.5 w/v %, saccharide 4 w/v %",16
same,Judgment score of biological activity,"[1]; mineral 4.5 w/v %, saccharide 0.01 w/v %",16
same,Judgment score of biological activity,"[1]; mineral 4.5 w/v %, saccharide 0.1 w/v %",37
same,Judgment score of biological activity,[1]; [4],44
same,Judgment score of biological activity,"[1]; mineral 4.5 w/v %, saccharide 2 w/v %",45
same,Judgment score of biological activity,"[1]; mineral 4.5 w/v %, saccharide 3 w/v %",30
same,Judgment score of biological activity,"[1]; mineral 4.5 w/v %, saccharide 4 w/v %",15
same,Judgment score for biological activity,"[1]; mineral 0 w/v %, saccharide 1 w/v %",11
same,Judgment score for biological activity,"[1]; mineral 0.5 w/v %, saccharide 1 w/v %",14
same,Judgment score for biological activity,"[1]; mineral 1.0 w/v %, saccharide 1 w/v %",36
same,Judgment score for biological activity,[1]; [3],40
same,Judgment score for biological activity,"[1]; mineral 2.0 w/v %, saccharide 1 w/v %",45
same,Judgment score for biological activity,"[1]; mineral 2.5 w/v %, saccharide 1 w/v %",49
same,Judgment score for biological activity,"[1]; mineral 3.0 w/v %, saccharide 1 w/v %",53
same,Judgment score for biological activity,"[1]; mineral 3.5 w/v %, saccharide 1 w/v %",50
same,Judgment score for biological activity,"[1]; mineral 4.0 w/v %, saccharide 1 w/v %",47
same,Judgment score for biological activity,[1]; [4],45
same,Judgment score for biological activity,"[1]; mineral 5.0 w/v %, saccharide 1 w/v %",33
same,Judgment score for biological activity,"[1]; mineral 5.5 w/v %, saccharide 1 w/v %",11
same,Judgment score for biological activity,"[1]; mineral 6.0 w/v %, saccharide 1 w/v %",2
same,Germinated grains (Number),"[2]; Experiment 7, mineral 1.5 w/v %, saccharide 0.01 w/v %, 48 hours",0
same,Germinated grains (Number),"[2]; Experiment 7, mineral 1.5 w/v %, saccharide 0.01 w/v %, 72 hours",2
same,Germinated grains (Number),"[2]; Experiment 7, mineral 1.5 w/v %, saccharide 0.01 w/v %, 96 hours",2
same,Germinated grains (Number),"[2]; Experiment 7, mineral 1.5 w/v %, saccharide 0.01 w/v %, 120 hours",2
same,Germinated grains (Number),"[2]; Experiment 7, mineral 1.5 w/v %, saccharide 0.1 w/v %, 48 hours",0
same,Germinated grains (Number),"[2]; Experiment 7, mineral 1.5 w/v %, saccharide 0.1 w/v %, 72 hours",2
same,Germinated grains (Number),"[2]; Experiment 7, mineral 1.5 w/v %, saccharide 0.1 w/v %, 96 hours",4
same,Germinated grains (Number),"[2]; Experiment 7, mineral 1.5 w/v %, saccharide 0.1 w/v %, 120 hours",5
same,Germinated grains (Number),"[2]; Experiment 7, mineral 1.5 w/v %, saccharide 1 w/v %, 48 hours",1
same,Germinated grains (Number),"[2]; Experiment 7, mineral 1.5 w/v %, saccharide 1 w/v %, 72 hours",3
same,Germinated grains (Number),"[2]; Experiment 7, mineral 1.5 w/v %, saccharide 1 w/v %, 96 hours",5
same,Germinated grains (Number),"[2]; Experiment 7, mineral 1.5 w/v %, saccharide 1 w/v %, 120 hours",5
same,Germinated grains (Number),"[2]; Experiment 7, mineral 1.5 w/v %, saccharide 2 w/v %, 48 hours",1
same,Germinated grains (Number),"[2]; Experiment 7, mineral 1.5 w/v %, saccharide 2 w/v %, 72 hours",6
same,Germinated grains (Number),"[2]; Experiment 7, mineral 1.5 w/v %, saccharide 2 w/v %, 96 hours",6
same,Germinated grains (Number),"[2]; Experiment 7, mineral 1.5 w/v %, saccharide 2 w/v %, 120 hours",6
same,Germinated grains (Number),"[2]; Experiment 7, mineral 1.5 w/v %, saccharide 3 w/v %, 48 hours",1
same,Germinated grains (Number),"[2]; Experiment 7, mineral 1.5 w/v %, saccharide 3 w/v %, 72 hours",4
same,Germinated grains (Number),"[2]; Experiment 7, mineral 1.5 w/v %, saccharide 3 w/v %, 96 hours",5
same,Germinated grains (Number),"[2]; Experiment 7, mineral 1.5 w/v %, saccharide 3 w/v %, 120 hours",5
same,Germinated grains (Number),"[2]; Experiment 7, mineral 1.5 w/v %, saccharide 4 w/v %, 48 hours",0
same,Germinated grains (Number),"[2]; Experiment 7, mineral 1.5 w/v %, saccharide 4 w/v %, 72 hours",3
same,Germinated grains (Number),"[2]; Experiment 7, mineral 1.5 w/v %, saccharide 4 w/v %, 96 hours",3
same,Germinated grains (Number),"[2]; Experiment 7, mineral 1.5 w/v %, saccharide 4 w/v %, 120 hours",3
same,Germinated grains (Number),"[2]; Experiment 7, mineral 1.5 w/v %, saccharide 6 w/v %, 48 hours",0
same,Germinated grains (Number),"[2]; Experiment 7, mineral 1.5 w/v %, saccharide 6 w/v %, 72 hours",0
same,Germinated grains (Number),"[2]; Experiment 7, mineral 1.5 w/v %, saccharide 6 w/v %, 96 hours",1
same,Germinated grains (Number),"[2]; Experiment 7, mineral 1.5 w/v %, saccharide 6 w/v %, 120 hours",1
same,Germinated grains (Number),"[2]; mineral 0.5 w/v %, saccharide 1 w/v %, 24 hours, 20 grains",0
same,Germinated grains (Number),"[2]; mineral 0.5 w/v %, saccharide 1 w/v %, 48 hours, 20 grains",15
same,Germinated grains (Number),"[2]; mineral 0.5 w/v %, saccharide 1 w/v %, 72 hours, 20 grains",19
same,Germinated grains (Number),"[2]; mineral 0.5 w/v %, saccharide 1 w/v %, 96 hours, 20 grains",20
same,Germinated grains (Number),"[2]; mineral 0.5 w/v %, saccharide 1 w/v %, 120 hours, 20 grains",20
same,Germinated grains (Number),"[2]; mineral 1.0 w/v %, saccharide 1 w/v %, 24 hours, 20 grains",0
same,Germinated grains (Number),"[2]; mineral 1.0 w/v %, saccharide 1 w/v %, 48 hours, 20 grains",3
same,Germinated grains (Number),"[2]; mineral 1.0 w/v %, saccharide 1 w/v %, 72 hours, 20 grains",10
same,Germinated grains (Number),"[2]; mineral 1.0 w/v %, saccharide 1 w/v %, 96 hours, 20 grains",16
same,Germinated grains (Number),"[2]; mineral 1.0 w/v %, saccharide 1 w/v %, 120 hours, 20 grains",16
same,Germinated grains (Number),"[2]; mineral 1.5 w/v %, saccharide 1 w/v %, 24 hours, 20 grains",0
same,Germinated grains (Number),"[2]; mineral 1.5 w/v %, saccharide 1 w/v %, 48 hours, 20 grains",1
same,Germinated grains (Number),"[2]; mineral 1.5 w/v %, saccharide 1 w/v %, 72 hours, 20 grains",3
same,Germinated grains (Number),"[2]; mineral 1.5 w/v %, saccharide 1 w/v %, 96 hours, 20 grains",5
same,Germinated grains (Number),"[2]; mineral 1.5 w/v %, saccharide 1 w/v %, 120 hours, 20 grains",5
same,Germinated grains (Number),"[2]; mineral 2.0 w/v %, saccharide 1 w/v %, 24 hours, 20 grains",0
same,Germinated grains (Number),"[2]; mineral 2.0 w/v %, saccharide 1 w/v %, 48 hours, 20 grains",0
same,Germinated grains (Number),"[2]; mineral 2.0 w/v %, saccharide 1 w/v %, 72 hours, 20 grains",0
same,Germinated grains (Number),"[2]; mineral 2.0 w/v %, saccharide 1 w/v %, 96 hours, 20 grains",0
same,Germinated grains (Number),"[2]; mineral 2.0 w/v %, saccharide 1 w/v %, 120 hours, 20 grains",0
